The source of these data is patent publication US8263606B2 (Xenon Pharmaceuticals Inc., priority 2008, dated 2012).

For series [1], the target named is CYP3A4 (Homo sapiens, UniProt P08684). The experiment in a line: Cytochrome P450 (CYP450) Inhibition Assay, CYP3A4 (Vivid fluorescence, BOMCC substrate). The settings on record: human, P450 Baculosomes (recombinant CYP3A4), probe BOMCC (Vivid substrate).
Series [2] deals with sodium channel. The experiment in a line: Guanidine influx assay (14C-guanidine radiotracer flux, in vitro). The conditions noted are these: guanidine influx assay using a known cell line that expresses a sodium channel. It counts as cell-based, human or rat. The gist of the method:
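Cells stably expressing human or rat sodium channels (~100,000/well, 20–24 h) were exposed in low-sodium choline buffer to test agent plus aconitine activator and 14C-guanidine at ambient temperature. Intracellular 14C-guanidine was counted by scintillation; IC50 fitted by 4-parameter logistic over half-dilutions around 1 μM.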

Structures can show the parent of a compound that is named as a salt.

CYP3A4, sequence (P08684 whole entry): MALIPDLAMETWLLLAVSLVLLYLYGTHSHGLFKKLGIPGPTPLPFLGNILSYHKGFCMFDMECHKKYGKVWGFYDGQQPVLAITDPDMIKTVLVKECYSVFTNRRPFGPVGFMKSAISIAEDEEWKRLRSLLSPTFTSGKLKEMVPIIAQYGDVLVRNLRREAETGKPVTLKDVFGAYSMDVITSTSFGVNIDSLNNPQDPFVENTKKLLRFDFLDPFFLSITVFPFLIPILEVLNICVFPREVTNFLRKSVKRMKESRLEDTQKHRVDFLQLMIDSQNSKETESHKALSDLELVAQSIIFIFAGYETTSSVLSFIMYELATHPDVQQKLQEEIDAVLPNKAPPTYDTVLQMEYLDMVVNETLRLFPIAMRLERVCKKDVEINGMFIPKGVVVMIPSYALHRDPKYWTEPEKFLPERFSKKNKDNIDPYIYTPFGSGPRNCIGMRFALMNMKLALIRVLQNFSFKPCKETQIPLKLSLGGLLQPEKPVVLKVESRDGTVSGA

On to `CC(C)N1CCOC(CN2C(=O)C3(COc4cc5c(cc43)CCO5)c3ccccc32)C1` (stereo not shown) [Example 11.42, 1′-{[4-(1-methylethyl)morpholin-2-yl]methyl}-5,6-dihydrospiro[benzo[1,2-b:5,4-b′]difuran-3,3′-indol]-2′(1′H)-one], for which the inhibition at 10 µM in series [1] is above 50%. Also, the IC50 in series [2] was in the range of 1 to 10 µM.

Regarding `O=C1N(Cc2ccc(-c3nnn[nH]3)cc2)c2ccccc2C12COc1cc3c(cc12)CCO3` (stereo not shown) [Example 11.44, 1′-[4-(1H-tetrazol-5-yl)benzyl]-5,6-dihydrospiro[benzo[1,2-b:5,4-b′]difuran-3,3′-indol]-2′(1′H)-one], the inhibition at 10 µM in series [1] was above 50%. Moreover, in series [2], the IC50 was in the range of 1 to 10 µM.

For the molecule `O=C1N(Cc2ccc(N3CCOCC3)cc2)c2ccccc2C12COc1cc3c(cc12)CCO3` (stereo not shown) [Example 11.46, t-(4-morpholin-4-ylbenzyl)-5,6-dihydrospiro[benzo[1,2-b:5,4-b′]difuran-3,3′-indol]-2′(1′H)-one], in series [1], the inhibition at 10 µM is above 50%. The IC50 in series [2] fell in the range of 0.1 to 1 µM.

`CS(=O)(=O)Nc1ccc2c(c1)OCC21C(=O)N(C[C@H]2CCCO2)c2ccccc21` (stereo partly drawn) [Example 11.48, N-{2′-oxo-1′-[(2R)-tetrahydrofuran-2-ylmethyl]-1′,2′-dihydrospiro[1-benzofuran-3,3′-indol]-6-yl}methanesulfonamide]: the inhibition at 10 µM in series [1] is below 50%. The concentration for half-maximal inhibition (IC50) in series [2] lay in the range of 1 to 10 µM.

Regarding `CC(C)Oc1ccc2c(c1)OCC21C(=O)N(C[C@H]2CCCO2)c2ccccc21` (stereo partly drawn) [Example 11.54, 6-(1-methylethoxy)-1′-[(2R)-tetrahydrofuran-2-ylmethyl]spiro[1-benzofuran-3,3′-indol]-2′(1′H)-one], the inhibition at 10 µM in series [1] is below 50%. In addition, the IC50 in series [2] is 0.1 to 1 µM.

Consider `O=C1N(CC2CCNC2)c2ccccc2C12COc1cc3c(cc12)CCO3` (stereo not shown) [Example 11.61, 1′-(pyrrolidin-3-ylmethyl)-5,6-dihydrospiro[benzo[1,2-b:5,4-b′]difuran-3,3′-indol]-2′(1′H)-one], for which the inhibition at 10 µM in series [1] was below 50%. For the same molecule, the half-maximal inhibitory concentration (IC50) in series [2] fell in the range of 1 to 10 µM.

`CN1CCN(CN2C(=O)C3(COc4cc5c(cc43)OCO5)c3ccccc32)CC1` (stereo not shown) [Example 11.63, 1′-[(4-methylpiperazin-1-yl)methyl]spiro[furo[2,3-f][1,3]benzodioxole-7,3′-indol]-2′(1′H)-one hydrogen chloride]: the inhibition at 10 µM in series [1] was above 50%. Moreover, the IC50 in series [2] lay within 0.001 to 0.1 µM.

As for `COc1cc2c(cc1C)[C@]1(CO2)C(=O)N(CN2CCN(C)CC2)c2ccccc21` [Example 11.65, (3R)-6-methoxy-5-methyl-1′-[(4-methylpiperazin-1-yl)methyl]spiro[1-benzofuran-3,3′-indol]-2′(1′H)-one hydrogen chloride], the inhibition at 10 µM in series [1] was above 50%. Further, in series [2], the IC50 was in the range of 0.1 to 1 µM.

For the molecule `O=C1N(C[C@@H]2CCCO2)c2ccccc2[C@@]12COc1cc3c(cc12)CCO3` [Example 11.68, (3R)-1-[(2S)-tetrahydrofuran-2-ylmethyl]-5,6-dihydrospiro[benzo[1,2-b:5,4-b′]difuran-3,3′-indol]-2′(1′H)-one], in series [1], the inhibition at 10 µM was above 50%. Besides, in series [2], the IC50 fell in the range of 0.001 to 0.1 µM.

As to `CS(=O)(=O)Nc1cccc(CN2C(=O)C3(COc4cc5c(cc43)OCCO5)c3ccccc32)c1` (stereo not shown) [Example 11.94, N-{3-[(2′-oxo-2,3-dihydrospiro[furo[2,3-g][1,4]benzodioxine-8,3′-indol]-1′(2′H)-yl)methyl]phenyl}methanesulfonamide], in series [1], the inhibition at 10 µM is above 50%. Moreover, the IC50 in series [2] was 0.1 to 1 µM.

With `O=C1N(Cc2cccc[n+]2[O-])c2ccccc2C12COc1cc3c(cc12)OCCO3` (stereo not shown) [Example 11.95, 1′-[(1-oxidopyridin-2-yl)methyl]-2,3-dihydrospiro[furo[2,3-g][1,4]benzodioxine-8,3′-indol]-2′(1′H)-one], the inhibition at 10 µM in series [1] was below 50%. In series [2], the IC50 lay in the range of 0.1 to 1 µM.

As to `Nc1cccnc1CN1C(=O)C2(COc3cc4c(cc32)OCCO4)c2ccccc21` (stereo not shown) [Example 11.97, 1′-[(3-aminopyridin-2-yl)methyl]-2,3-dihydrospiro[furo[2,3-g][1,4]benzodioxine-8,3′-indol]-2′(1′H)-one hydrobromide], the inhibition at 10 µM in series [1] is above 50%. Also, in series [2], the IC50 lay in the range of 0.001 to 0.1 µM.

As for `CS(=O)(=O)Nc1cccnc1CN1C(=O)C2(COc3cc4c(cc32)OCCO4)c2ccccc21` (stereo not shown) [Example 11.98, N-{2-[(2′-oxo-2,3-dihydrospiro[furo[2,3-g][1,4]benzodioxine-8,3′-indol]-1′(2′H)-yl)methyl]pyridine-3-yl}methanesulfonamide], the inhibition at 10 µM in series [1] was above 50%. Moreover, the IC50 in series [2] is 0.1 to 1 µM.

Turning to `O=C1N(CC2CCNCC2)c2ccccc2C12COc1cc3c(cc12)OCCO3` (stereo not shown) [Example 11.99, 1-(piperidin-4-ylmethyl)-2,3-dihydrospiro[furo[2,3-g][1,4]benzodioxine-8,3′-indol]-2′(1′H)-one hydrochloride], the inhibition at 10 µM in series [1] was below 50%. Besides, in series [2], the IC50 lay within 1 to 10 µM.

For `CN1CCC(CN2C(=O)C3(COc4cc5c(cc43)OCCO5)c3ccccc32)CC1` (stereo not shown) [Example 11.101, 1-[(1-methylpiperidin-4-yl)methyl]-2,3-dihydrospiro[furo[2,3-g][1,4]benzodioxine-8,3′-indol]-2′(1′H)-one hydrochloride], the inhibition at 10 µM in series [1] was below 50%. In series [2], the IC50 was in the range of 1 to 10 µM.

Take `CN1CCC(CN2C(=O)C3(COc4cc(F)c(F)cc43)c3ccccc32)CC1` (stereo not shown) [Example 11.112, 5,6-difluoro-1′-[(1-methylpiperidin-4-yl)methyl]spiro[1-benzofuran-3,3′-indol]-2′(1′H)-one hydrochloride]: the inhibition at 10 µM in series [1] was above 50%. Besides, the IC50 in series [2] was 0.001 to 0.1 µM.

Take `O=C(NCC1CCCCC1)c1cccc(CN2C(=O)C3(COc4cc5c(cc43)CCO5)c3ccccc32)c1` (stereo not shown) [Example 12, N-(cyclohexylmethyl)-3-[(2′-oxo-5,6-dihydrospiro[benzo[1,2-b:5,4-b′]difuran-3,3′-indol]-1′(2′H)-yl)methyl]benzamide]: in series [1], the inhibition at 10 µM was above 50%. Moreover, in series [2], the IC50 was 0.1 to 1 µM.

On to `CC(CNC(=O)c1cccc(CN2C(=O)C3(COc4cc5c(cc43)CCO5)c3ccccc32)c1)c1ccccc1` (stereo not shown) [Example 12.5, 3-[(2′-oxo-5,6-dihydrospiro[benzo[1,2-b:5,4-b′]difuran-3,3′-indol]-1′(2′H)-yl)methyl]-N-(2-phenylpropyl)benzamide], for which the inhibition at 10 µM in series [1] was above 50%. In addition, in series [2], the IC50 is 0.1 to 1 µM.

Turning to `C[C@H](NC(=O)c1cccc(CN2C(=O)C3(COc4cc5c(cc43)CCO5)c3ccccc32)c1)C1CCCCC1` (stereo partly drawn) [Example 12.6, N-[(1S)-1-cyclohexylethyl]-3-[(2′-oxo-5,6-dihydrospiro[benzo[1,2-b:5,4-b′]difuran-3,3′-indol]-1′(2′H)-yl)methyl]benzamide], the inhibition at 10 µM in series [1] was above 50%. For the same molecule, in series [2], the IC50 was 0.1 to 1 µM.

`C[C@@H](NC(=O)c1cccc(CN2C(=O)C3(COc4cc5c(cc43)CCO5)c3ccccc32)c1)C1CCCCC1` (stereo partly drawn) [Example 12.7, N-[(1R)-1-cyclohexylethyl]-3-[(2′-oxo-5,6-dihydrospiro[benzo[1,2-b:5,4-b′]difuran-3,3′-indol]-1′(2′H)-yl)methyl]benzamide]: in series [1], the inhibition at 10 µM is above 50%. In series [2], the IC50 lay in the range of 1 to 10 µM.

Usually inhibition stands for how much of the control response was suppressed. What is called IC50 is the concentration that inhibits the measured activity by half.
